Measured values taken from ChEMBL document CHEMBL3877302, “Design and Synthesis of a New Series of 4-Heteroarylamino-1'-azaspiro[oxazole-5,3'-bicyclo[2.2.2]octanes as α7 Nicotinic Receptor Agonists. 1. Development of Pharmacophore and Early Structure-Activity Relationship” (J Med Chem, 2016).
pEC50, pIC50, pKi: −log10 of the molar value. The source made the active and inactive calls. The calls are words filed in the database; no cut-off is given here.

Tests used:
[1] = target: T1, Neuronal acetylcholine receptor subunit alpha-7 (Rattus norvegicus, UniProt Q05941); test: Partial agonist activity at rat alpha7 nAChR expressed in HEK293 cells co-expressing human RIC3 at holding potential of -90 mV by whole-cell voltage clamp technique; assay type: cell-based
[2] = target: T1, Neuronal acetylcholine receptor subunit alpha-7; test: Agonist activity at rat alpha7 nAChR expressed in HEK293 cells co-expressing human RIC3 measured for 2 mins by FLIPR assay; assay type: cell-based
[3] = target: T2, 5-hydroxytryptamine receptor 3A (Homo sapiens, UniProt P46098); test: Antagonist activity at human 5-HT3A expressed in HEK293 cells assessed as reduction in acetylcholine-induced activity preincubated for 30 mins followed by addition of acetylcholine measured for 2 mins by Fluo-4AM dye based FLIPR assay; assay type: cell-based
T2 sequence (P46098 whole entry): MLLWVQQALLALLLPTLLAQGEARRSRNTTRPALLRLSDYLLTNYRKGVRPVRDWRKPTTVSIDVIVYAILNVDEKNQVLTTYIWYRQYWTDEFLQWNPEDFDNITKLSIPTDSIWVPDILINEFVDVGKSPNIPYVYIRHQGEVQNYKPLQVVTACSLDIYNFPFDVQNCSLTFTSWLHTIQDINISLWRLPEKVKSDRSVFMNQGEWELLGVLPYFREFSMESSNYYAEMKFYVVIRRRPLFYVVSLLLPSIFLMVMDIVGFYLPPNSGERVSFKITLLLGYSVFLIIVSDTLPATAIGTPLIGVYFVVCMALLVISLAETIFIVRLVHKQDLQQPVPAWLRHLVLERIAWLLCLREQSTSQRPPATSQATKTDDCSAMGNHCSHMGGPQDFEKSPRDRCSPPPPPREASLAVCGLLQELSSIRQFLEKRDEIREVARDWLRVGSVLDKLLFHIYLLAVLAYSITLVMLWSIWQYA

[4] = Selectivity ratio of IC50 for human 5-HT3A expressed in HEK293 cells to EC50 for rat alpha7 nAChR expressed in HEK293 cells co-expressing human RIC3; assay type: ADME, cell-based
[5] = Selectivity ratio of IC50 for human 5-HT3A expressed in HEK293 cells to EC50 for rat alpha1beta1deltaepsilon nAChR expressed in HEK293 cells; assay type: ADME, cell-based
[6] = Selectivity ratio of IC50 for human 5-HT3A expressed in HEK293 cells to EC50 for rat alpha3beta4 nAChR expressed in HEK293 cells; assay type: ADME, cell-based
[7] = Selectivity ratio of IC50 for human 5-HT3A expressed in HEK293 cells to EC50 for rat alpha4beta2 nAChR expressed in HEK293 cells; assay type: ADME, cell-based
[8] = Metabolic stability in human microsomes assessed as compound remaining measured after 10 mins; assay type: ADME, Microsome; conditions: read-out: Stability
[9] = Metabolic stability in mouse microsomes assessed as compound remaining measured after 10 mins; assay type: ADME, Microsome; conditions: read-out: Stability
[10] = Metabolic stability in rat microsomes assessed as compound remaining measured after 10 mins; assay type: ADME, Microsome; conditions: read-out: Stability
[11] = target: T1, Neuronal acetylcholine receptor subunit alpha-7; test: Displacement of [125I]Tyr54-alpha-bungarotoxin from rat alpha7 nAChR expressed in HEK293 cell membranes co-expressing human RIC3 measured after 2 hrs by gamma counting method
[12] = target: Nicotinic acetylcholine receptor alpha-1/beta-1/delta/epsilon (Rattus norvegicus, UniProt P09660+P25108+P25109+P25110); test: Agonist activity at rat alpha1beta1deltaepsilon nAChR expressed in HEK293 cells for 2 mins by FLIPR assay; assay type: cell-based
[13] = target: Neuronal acetylcholine receptor; alpha3/beta4 (Rattus norvegicus, UniProt P04757+P12392); test: Agonist activity at rat alpha3beta4 nAChR expressed in HEK293 cells for 2 mins by FLIPR assay; assay type: cell-based
[14] = target: Neuronal acetylcholine receptor; alpha4/beta2 (Rattus norvegicus, UniProt P09483+P12390); test: Agonist activity at rat alpha4beta2 nAChR expressed in HEK293 cells for 2 mins by FLIPR assay; assay type: cell-based
[15] = Clearance in rat; assay type: ADME; conditions: in vivo
[16] = Oral bioavailability in rat at 10 mg/kg; assay type: ADME, organism-based; conditions: in vivo
[17] = Plasma concentration in Wistar rat at 10 mg/kg, sc measured after 30 mins by LC-MS/MS analysis; assay type: ADME, organism-based
[18] = Drug uptake in Wistar rat brain at 10 mg/kg, sc measured after 30 mins by LC-MS/MS analysis; assay type: ADME, organism-based; conditions: read-out: Drug uptake
[19] = Ratio of drug level in Wistar rat brain to plasma at 10 mg/kg, sc; assay type: ADME, organism-based; conditions: read-out: BPR
[20] = tested on: Mus musculus; test: Cognitive enhancing effect in C57Bl/6 mouse at 3 and 10 mg/kg, sc administered 30 mins prior to training measured after 24 hrs by novel recognition assay; assay type: functional, organism-based
[21] = target: Voltage-gated inwardly rectifying potassium channel KCNH2 (Homo sapiens, UniProt Q12809); test: Inhibition of human ERG by patch clamp assay
[22] = target: T3, 5-HT3A (Homo sapiens, UniProt P46098); test: Antagonist activity at 5-HT3A (unknown origin) at 10 uM
T3 sequence (P46098 whole entry): T2 sequence (P46098 whole entry)

T1 sequence (Q05941 whole entry): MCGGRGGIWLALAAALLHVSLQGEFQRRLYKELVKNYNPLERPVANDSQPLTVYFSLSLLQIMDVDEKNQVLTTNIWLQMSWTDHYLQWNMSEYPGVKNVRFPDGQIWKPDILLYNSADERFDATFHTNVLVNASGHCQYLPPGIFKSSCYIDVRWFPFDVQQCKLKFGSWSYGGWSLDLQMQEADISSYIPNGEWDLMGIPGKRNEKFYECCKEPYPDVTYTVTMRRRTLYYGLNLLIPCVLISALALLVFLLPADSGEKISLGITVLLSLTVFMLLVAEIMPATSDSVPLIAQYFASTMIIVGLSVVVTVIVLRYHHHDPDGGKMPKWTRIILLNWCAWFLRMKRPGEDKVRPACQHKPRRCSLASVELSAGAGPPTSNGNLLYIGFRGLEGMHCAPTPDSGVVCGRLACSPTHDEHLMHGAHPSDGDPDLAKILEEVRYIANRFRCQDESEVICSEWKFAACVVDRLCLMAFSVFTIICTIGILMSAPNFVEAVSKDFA
Chain of Nicotinic acetylcholine receptor alpha-1/beta-1/delta/epsilon (P25109 whole entry): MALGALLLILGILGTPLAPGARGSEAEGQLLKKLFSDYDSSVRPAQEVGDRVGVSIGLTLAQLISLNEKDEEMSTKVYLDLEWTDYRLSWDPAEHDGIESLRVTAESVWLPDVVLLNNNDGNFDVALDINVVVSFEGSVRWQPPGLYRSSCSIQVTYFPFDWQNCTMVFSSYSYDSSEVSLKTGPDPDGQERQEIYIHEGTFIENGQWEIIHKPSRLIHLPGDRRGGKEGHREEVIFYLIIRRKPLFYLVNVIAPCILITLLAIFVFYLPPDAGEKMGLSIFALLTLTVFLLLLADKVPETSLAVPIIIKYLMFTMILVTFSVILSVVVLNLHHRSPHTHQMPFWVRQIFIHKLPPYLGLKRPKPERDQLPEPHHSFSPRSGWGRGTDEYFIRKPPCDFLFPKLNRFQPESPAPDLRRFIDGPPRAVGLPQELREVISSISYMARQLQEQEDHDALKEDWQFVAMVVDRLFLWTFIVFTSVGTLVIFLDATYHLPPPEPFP
Chain of Nicotinic acetylcholine receptor alpha-1/beta-1/delta/epsilon (P25108 whole entry): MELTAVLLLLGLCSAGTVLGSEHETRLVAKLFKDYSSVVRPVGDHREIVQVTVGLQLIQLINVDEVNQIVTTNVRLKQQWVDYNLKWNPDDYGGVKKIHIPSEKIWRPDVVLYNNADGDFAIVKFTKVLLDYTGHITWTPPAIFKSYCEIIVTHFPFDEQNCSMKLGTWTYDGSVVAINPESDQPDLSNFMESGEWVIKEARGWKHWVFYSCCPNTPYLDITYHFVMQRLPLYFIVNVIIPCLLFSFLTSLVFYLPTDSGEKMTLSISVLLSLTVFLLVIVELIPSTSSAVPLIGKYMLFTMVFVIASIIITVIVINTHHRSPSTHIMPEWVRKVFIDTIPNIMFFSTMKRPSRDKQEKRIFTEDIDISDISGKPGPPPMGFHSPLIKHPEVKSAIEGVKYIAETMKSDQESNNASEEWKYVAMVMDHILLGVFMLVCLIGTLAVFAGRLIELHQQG
Chain of Nicotinic acetylcholine receptor alpha-1/beta-1/delta/epsilon (P25110 whole entry): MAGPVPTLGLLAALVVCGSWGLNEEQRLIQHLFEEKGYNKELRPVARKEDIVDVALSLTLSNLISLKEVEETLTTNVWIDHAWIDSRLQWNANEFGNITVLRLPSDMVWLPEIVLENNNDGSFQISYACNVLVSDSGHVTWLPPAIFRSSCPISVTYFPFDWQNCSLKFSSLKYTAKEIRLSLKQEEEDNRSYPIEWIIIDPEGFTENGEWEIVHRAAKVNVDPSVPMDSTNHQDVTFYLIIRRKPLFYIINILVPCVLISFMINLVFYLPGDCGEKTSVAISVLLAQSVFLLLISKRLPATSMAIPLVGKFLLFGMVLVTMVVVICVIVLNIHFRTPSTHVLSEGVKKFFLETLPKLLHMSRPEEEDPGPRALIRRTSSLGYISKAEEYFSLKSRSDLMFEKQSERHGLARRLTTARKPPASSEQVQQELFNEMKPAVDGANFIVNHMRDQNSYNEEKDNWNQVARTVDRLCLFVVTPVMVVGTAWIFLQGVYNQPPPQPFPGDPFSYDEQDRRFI
Chain of Nicotinic acetylcholine receptor alpha-1/beta-1/delta/epsilon (P09660 whole entry): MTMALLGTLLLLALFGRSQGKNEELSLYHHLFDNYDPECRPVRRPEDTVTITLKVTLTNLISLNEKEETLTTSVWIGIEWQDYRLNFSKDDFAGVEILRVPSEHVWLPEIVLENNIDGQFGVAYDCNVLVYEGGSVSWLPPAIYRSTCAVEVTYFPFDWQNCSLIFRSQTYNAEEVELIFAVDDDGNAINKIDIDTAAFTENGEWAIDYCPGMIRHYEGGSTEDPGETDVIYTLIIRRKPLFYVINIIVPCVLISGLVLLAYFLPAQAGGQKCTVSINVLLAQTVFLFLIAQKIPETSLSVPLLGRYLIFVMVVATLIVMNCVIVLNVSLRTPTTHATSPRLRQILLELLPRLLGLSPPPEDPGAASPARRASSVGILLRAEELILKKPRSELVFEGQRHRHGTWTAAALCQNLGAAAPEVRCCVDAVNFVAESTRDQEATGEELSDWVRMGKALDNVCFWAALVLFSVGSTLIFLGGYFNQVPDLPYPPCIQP
Chain of Neuronal acetylcholine receptor; alpha3/beta4 (P04757 whole entry): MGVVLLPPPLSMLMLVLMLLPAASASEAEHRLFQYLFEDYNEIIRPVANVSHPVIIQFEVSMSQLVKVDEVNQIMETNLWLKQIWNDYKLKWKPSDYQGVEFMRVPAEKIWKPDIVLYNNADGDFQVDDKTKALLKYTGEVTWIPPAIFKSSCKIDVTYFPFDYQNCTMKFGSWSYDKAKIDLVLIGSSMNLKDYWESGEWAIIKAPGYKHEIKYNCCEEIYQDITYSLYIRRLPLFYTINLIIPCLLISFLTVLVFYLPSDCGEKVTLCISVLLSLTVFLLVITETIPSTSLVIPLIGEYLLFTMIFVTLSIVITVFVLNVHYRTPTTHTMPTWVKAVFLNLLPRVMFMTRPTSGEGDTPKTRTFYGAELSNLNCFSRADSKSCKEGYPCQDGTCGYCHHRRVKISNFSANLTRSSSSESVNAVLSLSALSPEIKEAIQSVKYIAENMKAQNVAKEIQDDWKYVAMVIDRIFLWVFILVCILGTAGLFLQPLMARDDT
Chain of Neuronal acetylcholine receptor; alpha3/beta4 (P12392 whole entry): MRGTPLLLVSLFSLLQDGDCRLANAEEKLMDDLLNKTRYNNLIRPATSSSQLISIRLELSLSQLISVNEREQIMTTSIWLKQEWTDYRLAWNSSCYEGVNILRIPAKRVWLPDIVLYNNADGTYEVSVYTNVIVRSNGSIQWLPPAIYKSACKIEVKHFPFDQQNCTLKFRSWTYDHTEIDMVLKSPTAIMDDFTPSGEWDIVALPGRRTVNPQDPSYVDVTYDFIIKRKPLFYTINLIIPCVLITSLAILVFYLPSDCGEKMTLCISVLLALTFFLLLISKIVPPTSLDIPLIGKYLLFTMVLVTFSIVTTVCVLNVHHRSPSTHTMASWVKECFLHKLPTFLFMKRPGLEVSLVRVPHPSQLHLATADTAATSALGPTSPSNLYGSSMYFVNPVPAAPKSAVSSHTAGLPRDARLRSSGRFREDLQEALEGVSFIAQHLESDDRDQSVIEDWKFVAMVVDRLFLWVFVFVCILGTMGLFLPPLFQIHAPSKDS
Chain of Neuronal acetylcholine receptor; alpha4/beta2 (P09483 whole entry): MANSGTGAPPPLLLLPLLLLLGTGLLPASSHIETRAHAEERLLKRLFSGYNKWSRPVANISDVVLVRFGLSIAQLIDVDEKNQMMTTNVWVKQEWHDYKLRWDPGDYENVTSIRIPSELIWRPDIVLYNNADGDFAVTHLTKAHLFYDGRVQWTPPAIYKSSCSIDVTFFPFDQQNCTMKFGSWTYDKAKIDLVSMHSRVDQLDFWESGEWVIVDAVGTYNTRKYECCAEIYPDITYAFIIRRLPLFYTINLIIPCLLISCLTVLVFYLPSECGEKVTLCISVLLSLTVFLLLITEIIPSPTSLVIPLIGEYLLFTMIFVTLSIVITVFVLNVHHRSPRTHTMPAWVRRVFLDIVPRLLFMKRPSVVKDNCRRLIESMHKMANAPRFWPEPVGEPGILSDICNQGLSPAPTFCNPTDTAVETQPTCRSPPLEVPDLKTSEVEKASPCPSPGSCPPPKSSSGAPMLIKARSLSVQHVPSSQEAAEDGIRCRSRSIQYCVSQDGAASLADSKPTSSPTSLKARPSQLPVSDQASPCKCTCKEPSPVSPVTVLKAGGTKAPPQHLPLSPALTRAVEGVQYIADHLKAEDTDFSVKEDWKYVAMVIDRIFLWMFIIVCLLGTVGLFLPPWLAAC
Chain of Neuronal acetylcholine receptor; alpha4/beta2 (P12390 whole entry): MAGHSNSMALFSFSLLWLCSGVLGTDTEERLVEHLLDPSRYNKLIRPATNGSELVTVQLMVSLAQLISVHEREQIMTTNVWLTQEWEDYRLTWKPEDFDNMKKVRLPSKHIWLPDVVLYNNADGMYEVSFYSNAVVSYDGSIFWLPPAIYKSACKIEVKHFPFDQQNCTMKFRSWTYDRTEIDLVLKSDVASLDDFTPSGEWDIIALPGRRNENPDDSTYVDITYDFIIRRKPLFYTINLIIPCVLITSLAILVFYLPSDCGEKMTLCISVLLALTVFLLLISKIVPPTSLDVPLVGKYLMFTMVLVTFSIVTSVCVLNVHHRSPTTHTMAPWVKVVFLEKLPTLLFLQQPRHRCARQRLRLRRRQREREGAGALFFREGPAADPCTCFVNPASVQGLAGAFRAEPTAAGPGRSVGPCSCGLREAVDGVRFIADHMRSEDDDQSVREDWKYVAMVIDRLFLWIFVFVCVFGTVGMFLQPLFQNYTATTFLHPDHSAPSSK

| Compound | pEC50 [2] | pIC50 [3] | Ratio IC50/EC50 [4] | further results |
| --- | --- | --- | --- | --- |
| COc1ccc2nc(NC3=NCC4(CN5CCC4CC5)O3)sc2c1 (configuration not stated) | 6.92 | 4.72 | 153 | pEC50 [1]: 6.22 |
| c1ccc2sc(NC3=NCC4(CN5CCCC4C5)O3)nc2c1 (racemic) | 6.15 | 8.15 | < 0.01 | – |
| COc1ccc2nc(NC3=NC[C@]4(CN5CCC4CC5)O3)sc2c1 | 5.72 | < 4.01 | 85 | – |
| c1ccc2sc(NC3=NCC4(CN5CCC[C@@H]4C5)O3)nc2c1 (mixture of isomers) | 6.54 | 6.02 | 3 | – |
| c1ccc2c(NC3=NC[C@@]4(CN5CCC4CC5)O3)nccc2c1 | 6.68 | – | – | – |
| c1ccc(-c2cnc(NC3=NCC4(CN5CCC4CC5)O3)s2)cc1 (racemic) | 6.40 | 4.70 | 51 to 750 | – |
| Clc1ccc2nc(NC3=NCC4(CN5CCC4CC5)O3)sc2c1 (configuration not stated) | 6.82 | 5.09 | 53 | – |
| c1ccc2sc(NC3=NC[C@@]4(CN5CCC4CC5)O3)nc2c1 | 7.68 | 7.68 | 1 | – |
| Cc1ccc2nc(NC3=NCC4(CN5CCC4CC5)O3)sc2c1 (configuration not stated) | 6.92 | 5.42 | 32 | – |
| c1csc(NC2=NCC3(CN4CCC3CC4)O2)n1 (racemic) | 6.70 | 7.60 | 0.1 | pEC50 [1]: 5.89 |
| c1ccc2sc(NC3=NCC4(CN5CCC4CC5)O3)nc2c1 (racemic) | 7.68 to 7.70 | 7.44 to 7.68 | 1 to 1.8 | pEC50 [1]: 6.30 |
| c1ccc(-c2ccnc(NC3=NC[C@@]4(CN5CCC4CC5)O3)c2)cc1 | – | 7.07 | 9 to 9.6 | – |
| COc1cccc2sc(NC3=NCC4(CN5CCC4CC5)O3)nc12 (configuration not stated) | 6.08 | 7.89 | 0.02 | – |
| c1ccc(-c2csc(NC3=NCC4(CN5CCC4CC5)O3)n2)cc1 (racemic) | 6.35 | 7.96 | 0.02 | – |
| c1cc(NC2=NCC3(CN4CCC3CC4)O2)ccn1 (racemic) | 4.96 | 4.24 | 5 | – |
| c1nc2cc(NC3=NCC4(CN5CCC4CC5)O3)ccc2s1 (racemic) | 5.51 | 4.39 | 13 | – |

| Compound | pEC50 [2] | pIC50 [3] | Ratio IC50/EC50 [4] | further results |
| --- | --- | --- | --- | --- |
| COc1ccc2sc(NC3=NCC4(CN5CCC4CC5)O3)nc2c1 (configuration not stated) | 5.96 | 7.72 | 0.02 | – |
| CCOc1ccc2nc(NC3=NCC4(CN5CCC4CC5)O3)sc2c1 (configuration not stated) | 6.49 | 4.85 | 42 | – |
| c1ccc(-c2ccc(NC3=NC[C@@]4(CN5CCC4CC5)O3)nc2)cc1 | 6.12 | 4.66 | 30 | – |
| c1cncc(/N=C2\NCC3(CN4CCC3CC4)O2)c1 (racemic) | 4.68 | 5.64 | 0.1 | – |
| c1ccc2sc(NC3=NCC4(CN5CCC4C5)O3)nc2c1 (racemic) | 6.59 | 7.46 | 0.06 | – |
| COc1ccc2nc(NC3=NC[C@@]4(CN5CCC4CC5)O3)sc2c1 | 6.85 | 5.04 | 66 | pEC50 [1]: 6.40; Ratio IC50/EC50 [5]: > 700; Ratio IC50/EC50 [6]: > 700; Ratio IC50/EC50 [7]: > 700; remaining at 10 min [8]: > 60%; remaining at 10 min [9]: > 60%; remaining at 10 min [10]: > 60%; pKi [11]: 7.29 to 7.42; pEC50 [12]: < 4.00; pEC50 [13]: < 4.00; pEC50 [14]: < 4.00; clearance [15]: 320 mL/min/kg; bioavailability [16]: 24%; concentration at 0.5 h [17]: 0.76 µM; concentration at 0.5 h [18]: 5.3 µM; Kp [19]: 7; Activity [20]: Active; pIC50 [21]: 5.89 |
| c1ccc2nc(NC3=NC[C@@]4(CN5CCC4CC5)O3)ccc2c1 | 7.59 | 8.10 | 0.3 | – |
| COc1cc2nc(NC3=NCC4(CN5CCC4CC5)O3)sc2cc1OC (configuration not stated) | 4.96 | 4.57 | 3 | – |
| Oc1ccc2nc(NC3=NCC4(CN5CCC4CC5)O3)sc2c1 (configuration not stated) | 6.01 | 4.96 | 11 | – |
| COc1ccc2nc(/N=C3/OC4(CN5CCC4CC5)CN3C)sc2c1 (configuration not stated) | < 4.00 | < 4.00 | – | – |
| COc1ccc2nc(NC3=NCCC4(CN5CCC4CC5)O3)sc2c1 (configuration not stated) | 5.43 | 4.19 | 17 | – |
| COc1ccc2nc(NC3=NC4(CO3)CN3CCC4CC3)sc2c1 (configuration not stated) | 5.11 | 4.33 | 6 | – |
| c1ccc2sc(NC3=NC[C@@]4(CN5CC[C@@H]4C5)O3)nc2c1 | 7.66 | 6.32 | 22 | pEC50 [1]: 6.55 |
| c1ccc2sc(NC3=NC[C@]4(CN5CCC4CC5)O3)nc2c1 | 5.89 | 5.14 | 6 | – |
| O=C1NC[C@@]2(CN3CCC2CC3)O1 | – | – | – | inhibition at 10 µM [22]: 2.5% |
| c1ccc(NC2=NCC3(CN4CCC3CC4)O2)cc1 (racemic) | 5.27 | 6.64 | 0.04 | – |
